Assay [1] deals with T1, Oxysterols receptor LXR-alpha (Homo sapiens) (UniProt Q13133).
T1 sequence (whole entry): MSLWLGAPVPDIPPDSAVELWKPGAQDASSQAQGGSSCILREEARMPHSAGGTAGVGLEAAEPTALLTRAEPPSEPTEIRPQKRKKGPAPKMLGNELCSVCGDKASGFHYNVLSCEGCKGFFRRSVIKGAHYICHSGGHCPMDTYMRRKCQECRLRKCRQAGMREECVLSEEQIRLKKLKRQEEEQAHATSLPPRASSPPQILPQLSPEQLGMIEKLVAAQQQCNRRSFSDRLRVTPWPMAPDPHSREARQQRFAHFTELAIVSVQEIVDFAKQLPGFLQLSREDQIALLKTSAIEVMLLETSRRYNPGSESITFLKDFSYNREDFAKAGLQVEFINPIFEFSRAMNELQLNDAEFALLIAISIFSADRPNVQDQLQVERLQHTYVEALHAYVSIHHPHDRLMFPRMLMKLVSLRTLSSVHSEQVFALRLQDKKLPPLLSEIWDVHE
In words: Agonist activity at LXRalpha transfected in […] COS1 cells after 18 hrs by luciferase reporter gene transactivation assay. The format is functional, cell-based. The settings on record: COS-1. (In general: Reporter assays use an easily measured gene product as a stand-in for the process of interest.)

The target of assay [2] is T2, Retinoic acid receptor RXR-alpha (Homo sapiens, UniProt P19793).
T2 sequence (P19793 whole entry): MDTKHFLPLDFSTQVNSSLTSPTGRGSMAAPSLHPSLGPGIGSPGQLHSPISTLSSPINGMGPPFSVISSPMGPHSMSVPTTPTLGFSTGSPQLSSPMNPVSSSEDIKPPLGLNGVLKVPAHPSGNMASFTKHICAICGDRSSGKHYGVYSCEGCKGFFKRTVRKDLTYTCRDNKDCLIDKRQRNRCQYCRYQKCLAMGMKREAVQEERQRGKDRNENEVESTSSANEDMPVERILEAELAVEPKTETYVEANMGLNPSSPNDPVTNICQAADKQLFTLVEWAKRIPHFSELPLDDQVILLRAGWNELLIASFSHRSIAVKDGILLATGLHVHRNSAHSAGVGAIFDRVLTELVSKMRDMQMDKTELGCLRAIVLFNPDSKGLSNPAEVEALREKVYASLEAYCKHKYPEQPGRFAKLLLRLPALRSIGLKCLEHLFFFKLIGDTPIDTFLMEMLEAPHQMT
The assay can be described thus: Agonist activity at RXRalpha transfected in […] COS1 cells after 18 hrs by luciferase reporter gene transactivation assay. The format is functional, cell-based, COS-1.

Assay [3] concerns the target Retinoic acid receptor RXR-alpha/oxysterols receptor LXR-alpha (Homo sapiens) (UniProt P19793+Q13133). In words: Agonist activity at LXRalpha/RXRalpha transfected in […] COS1 cells at 10^-7 to 10^-6 M after 18 hrs by luciferase reporter gene transactivation assay. It counts as functional, cell-based. The settings on record: COS-1.

Active and inactive are the calls of the source. No cut-off for these calls is given here.

On to `CCN(c1ccc(C(C)C)c(OCC(C)C)c1)c1ccc(C(=O)O)cn1`, for which the result in assay [1] was Active.
For orientation: EC50 means the concentration giving half of the maximal effect. A low value points to a more potent agent. For the compound `CCN(c1ccc(C(C)C)c(OCC(F)(F)F)c1)c1ccc(C(=O)O)cn1`, in assay [2], the EC50 is 0.16 µM. This counts as sub-micromolar.
Turning to `CCN(c1ccc(C(C)C)c(OCC2CC2)c1)c1ccc(C(=O)O)cn1`, the outcome in assay [3] was Active. In addition, in assay [2], it took 0.29 µM to reach a half-maximal effect (EC50).
In the case of `CCN(c1ccc(C(C)C)c(OCc2ccccc2)c1)c1ccc(C(=O)O)cn1`, the outcome in assay [3] was Active. In assay [2], this compound yielded an EC50 of 0.16 µM.
The compound `CCN(c1ccc(C(C)C)c(OC(C)C)c1)c1ccc(C(=O)O)cn1` gave an EC50 in assay [2] of 0.066 µM.
Turning to `CCCCCCOc1cc(N(CC)c2ccc(C(=O)O)cn2)ccc1C(C)C`, in assay [2], the EC50 was 0.28 µM.
Consider `CCCCOc1cc(N(CC)c2ccc(C(=O)O)cn2)ccc1C(C)C`, for which the EC50 in assay [2] was found to be 0.18 µM.
Take `CCN(c1ccc(C(C)C)c(OCC=C(C)C)c1)c1ccc(C(=O)O)cn1`: the EC50 in assay [2] amounted to 0.16 µM.
On to `CCN(c1ccc(C(C)C)c(OCCCc2ccccc2)c1)c1ccc(C(=O)O)cn1`, for which it took 0.82 µM to reach a half-maximal effect in assay [2] (EC50).
Compound `C=C(C)COc1cc(N(CC)c2ccc(C(=O)O)cn2)ccc1C(C)C` returned an EC50 in assay [2] of 0.11 µM. Against the preceding compound, the EC50 is about 7.5-fold lower.
As for `CCCCCOc1cc(N(CC)c2ccc(C(=O)O)cn2)ccc1C(C)C`, the outcome in assay [3] was Active. A half-maximal effect in assay [2] (EC50) was put at 0.16 µM.
For the compound `CCCOc1cc(N(CC)c2ccc(C(=O)O)cn2)ccc1C(C)C`, a half-maximal response in assay [2] (EC50) required 0.45 µM.
Turning to `CCN(c1ccc2c(c1)C(C)(C)CCC2(C)C)c1ccc(C(=O)O)cn1`, the outcome in assay [1] was Active.
In the case of `CCN(c1ccc(C(C)C)c(OCCc2ccccc2)c1)c1ccc(C(=O)O)cn1`, the concentration giving a half-maximal response (EC50) in assay [2] turned out to be 0.33 µM.

(Values after ChEMBL document CHEMBL1687703, “Modification at the Lipophilic Domain of RXR Agonists Differentially Influences Activation of RXR Heterodimers” (ACS Med Chem Lett, 2010).)
